The source of these data is patent US7528138B2, “Pyrazolo[1,5-a]pyrimidines useful as inhibitors of protein kinases” (Vertex Pharmaceuticals Incorporated, priority 2004, dated 2009).

A value given as a limit tells only on which side of the number the result lay.

Holding throughout (format): biochemical
One assay has as its target T1, JAK3 (Homo sapiens, UniProt P52333).
T1 sequence (P52333 1-1124): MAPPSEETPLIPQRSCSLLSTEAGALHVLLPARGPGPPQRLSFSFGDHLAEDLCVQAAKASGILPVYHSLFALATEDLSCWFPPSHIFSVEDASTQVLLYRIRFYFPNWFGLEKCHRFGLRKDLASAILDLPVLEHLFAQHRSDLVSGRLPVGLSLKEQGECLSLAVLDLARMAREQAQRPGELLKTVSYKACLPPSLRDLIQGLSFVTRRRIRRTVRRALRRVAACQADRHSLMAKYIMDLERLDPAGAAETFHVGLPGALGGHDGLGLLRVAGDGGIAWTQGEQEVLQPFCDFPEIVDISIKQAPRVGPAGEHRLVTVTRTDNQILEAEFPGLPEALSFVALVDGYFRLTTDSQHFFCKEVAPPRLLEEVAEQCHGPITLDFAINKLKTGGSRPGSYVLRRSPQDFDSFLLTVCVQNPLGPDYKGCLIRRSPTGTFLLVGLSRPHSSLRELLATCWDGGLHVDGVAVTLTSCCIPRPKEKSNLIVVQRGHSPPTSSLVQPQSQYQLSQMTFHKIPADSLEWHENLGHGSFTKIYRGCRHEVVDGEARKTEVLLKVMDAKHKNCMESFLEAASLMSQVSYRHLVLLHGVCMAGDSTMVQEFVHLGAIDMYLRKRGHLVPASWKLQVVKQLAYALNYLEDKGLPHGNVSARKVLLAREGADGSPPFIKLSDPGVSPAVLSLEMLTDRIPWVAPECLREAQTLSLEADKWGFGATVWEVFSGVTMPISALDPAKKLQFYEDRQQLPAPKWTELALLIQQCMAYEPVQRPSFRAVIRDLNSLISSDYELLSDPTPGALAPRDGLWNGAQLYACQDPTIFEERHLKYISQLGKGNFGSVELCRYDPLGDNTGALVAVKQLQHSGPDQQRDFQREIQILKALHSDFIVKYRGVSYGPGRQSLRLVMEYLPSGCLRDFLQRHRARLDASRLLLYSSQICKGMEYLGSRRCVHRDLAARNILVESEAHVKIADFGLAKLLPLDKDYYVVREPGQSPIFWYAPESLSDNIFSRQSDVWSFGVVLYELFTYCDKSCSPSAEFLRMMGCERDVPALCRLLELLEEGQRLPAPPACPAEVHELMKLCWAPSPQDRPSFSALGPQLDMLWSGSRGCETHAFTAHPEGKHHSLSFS
As to the kind of experiment: JAK3 Inhibition Assay, 33P incorporation. The conditions noted are these: enzyme inhibition data (Ki), Table 11. The protocol:
Reactions are carried out in a kinase buffer containing 100 mM HEPES (pH 7.4), 1 mM DTT, 10 mM MgCl2, 25 mM NaCl, and 0.01% BSA. Substrate concentrations in the assay are 5 μM ATP (200 uCi/μmole ATP) and 1 μM poly(Glu)4Tyr. Reactions are carried out at 25° C. and 1 nM JAK3. To each well of a 96 well polycarbonate plate is added 1.5 μl of a candidate JAK3 inhibitor along with 50 μl of kinase buffer containing 2 μM poly(Glu)4Tyr and 10 μM ATP. This is then mixed and 50 μl of kinase buffer containing 2 nM JAK3 enzyme is added to start the reaction. After 20 minutes at room temperature (25 C), the reaction is stopped with 50 μl of 20% trichloroacetic acid (TCA) that also contained 0.4 mM ATP. The entire contents of each well are then transferred to a 96 well glass fiber filter plate using a TomTek Cell Harvester. After washing, 60 μl of scintillation fluid is added and ^33P incorporation detected on a Perkin Elmer TopCount.

The next assay has as its target T2, Itk (Homo sapiens, UniProt Q08881).
T2 sequence (Q08881 1-620): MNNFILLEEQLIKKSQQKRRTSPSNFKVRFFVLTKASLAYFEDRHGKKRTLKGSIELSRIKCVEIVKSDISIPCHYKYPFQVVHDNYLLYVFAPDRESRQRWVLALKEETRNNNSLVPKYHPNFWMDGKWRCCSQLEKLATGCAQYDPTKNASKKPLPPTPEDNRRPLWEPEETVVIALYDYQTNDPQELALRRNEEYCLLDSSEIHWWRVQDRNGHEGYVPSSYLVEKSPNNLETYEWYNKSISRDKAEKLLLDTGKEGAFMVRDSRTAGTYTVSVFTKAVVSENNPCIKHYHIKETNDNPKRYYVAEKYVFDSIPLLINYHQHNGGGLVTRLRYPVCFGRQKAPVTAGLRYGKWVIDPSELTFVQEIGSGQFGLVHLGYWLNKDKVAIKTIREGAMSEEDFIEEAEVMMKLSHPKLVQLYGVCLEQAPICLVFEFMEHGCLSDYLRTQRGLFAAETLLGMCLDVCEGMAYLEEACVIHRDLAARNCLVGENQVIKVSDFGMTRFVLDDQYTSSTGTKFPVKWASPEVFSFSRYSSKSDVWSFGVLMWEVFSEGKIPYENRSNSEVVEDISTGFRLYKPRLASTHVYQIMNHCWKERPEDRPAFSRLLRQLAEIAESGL
The experiment in a line: ITK Inhibition Assay (Radiometric), radioactive-phosphate incorporation. The conditions noted are these: enzyme inhibition data (Ki), Table 11; radiometric or UV assay not stated. The protocol: Assays are carried out in a mixture of 20 mM MOPS (pH 7.0), 10 mM MgCl2, 0.1% BSA and 1 mM DTT. Final substrate concentrations in the assay are 7.5 μM [γ-33P]ATP (400 mCi 33P ATP/mmol ATP, Amersham Pharmacia Biotech/Sigma Chemicals) and 3 μM peptide (SAM68 protein D332-443). Assays are carried out at 25° C. in the presence of 50 nM Itk. An assay stock buffer solution is prepared containing all of the reagents listed above, with the exception of ATP and the test compound of interest. 50 μL of the stock solution is placed in a 96 well plate followed by addition of 2 μL of DMSO stock containing serial dilutions of the test compound (typically starting from a final concentration of 50 μM with 2-fold serial dilutions) in duplicate (final DMSO concentration 2%). The plate is pre-incubated for 10 minutes at 25° C. and the reaction initiated by addition of 50 μL [γ-33P]ATP (final concentration 7.5 μM).
The reaction is stopped after 10 minutes by the addition of […] 0.2M phosphoric acid+0.01% TWEEN 20. A multiscreen phosphocellulose filter 96-well plate (Millipore, Cat no. MAPHN0B50) is pretreated with 100 μL 0.2M phosphoric acid +0.01% TWEEN 20 prior to the addition of […] of the stopped assay mixture. The plate is washed with 4×200 μL 0.2M phosphoric acid+0.01% TWEEN 20. After drying, 30 μL Optiphase ‘SuperMix’ liquid scintillation cocktail (Perkin Elmer) is added to the well prior to scintillation counting (1450 Microbeta Liquid Scintillation Counter, Wallac).
Ki(app) data are calculated from non-linear regression analysis of the initial rate data using the Prism software package (GraphPad Prism version 3.0cx for Macintosh, GraphPad Software, San Diego Calif., USA).

Another assay concerns the target c-Met (Homo sapiens, UniProt P08581). As to the kind of experiment: c-Met Inhibition Assay, coupled enzyme system. Conditions: enzyme inhibition data (Ki), Table 11. The protocol: Compounds are screened for their ability to inhibit c-Met kinase activity using a standard coupled enzyme system (Fox et al., Protein Sci. 1998, 7, 2249). Reactions are carried out in a solution containing 100 mM HEPES (pH 7.5), 10 mM MgCl2, 25 mM NaCl, 300 μM NADH, 1 mM DTT, and 1.5% DMSO. Final substrate concentrations in the assay are 200 μM ATP (Sigma Chemicals, St Louis, Mo.) and 10 μM polyGluTyr (Sigma Chemical Company, St. Louis). Reactions are carried out at 30° C. and 80 nM c-Met. Final concentrations of the components of the coupled enzyme system are 2.5 mM phosphoenolpyruvate, 300 μM NADH, 30 μg/ml pyruvate kinase and 10 μg/ml lactate dehydrogenase.
An assay stock buffer solution is prepared containing all of the reagents listed above with the exception of ATP and a test compound of the present invention. The assay stock buffer solution (175 μl) is incubated in a 96 well plate with 5 μl of the test compound of the present invention at final concentrations spanning 0.006 μM to 12.5 μM at 30° C. for 10 minutes. Typically, a 12-point titration is conducted by preparing serial dilutions (from 10 mM compound stocks) with DMSO of the test compounds of the present invention in daughter plates. The reaction is initiated by the addition of 20 μl of ATP (final concentration 200 μM). Rates of reaction are obtained using a Molecular Devices Spectramax plate reader (Sunnyvale, Calif.) over 10 minutes at 30° C. The Ki values are determined from the rate data as a function of inhibitor concentration.

Sequence of c-Met (P08581 25-1390): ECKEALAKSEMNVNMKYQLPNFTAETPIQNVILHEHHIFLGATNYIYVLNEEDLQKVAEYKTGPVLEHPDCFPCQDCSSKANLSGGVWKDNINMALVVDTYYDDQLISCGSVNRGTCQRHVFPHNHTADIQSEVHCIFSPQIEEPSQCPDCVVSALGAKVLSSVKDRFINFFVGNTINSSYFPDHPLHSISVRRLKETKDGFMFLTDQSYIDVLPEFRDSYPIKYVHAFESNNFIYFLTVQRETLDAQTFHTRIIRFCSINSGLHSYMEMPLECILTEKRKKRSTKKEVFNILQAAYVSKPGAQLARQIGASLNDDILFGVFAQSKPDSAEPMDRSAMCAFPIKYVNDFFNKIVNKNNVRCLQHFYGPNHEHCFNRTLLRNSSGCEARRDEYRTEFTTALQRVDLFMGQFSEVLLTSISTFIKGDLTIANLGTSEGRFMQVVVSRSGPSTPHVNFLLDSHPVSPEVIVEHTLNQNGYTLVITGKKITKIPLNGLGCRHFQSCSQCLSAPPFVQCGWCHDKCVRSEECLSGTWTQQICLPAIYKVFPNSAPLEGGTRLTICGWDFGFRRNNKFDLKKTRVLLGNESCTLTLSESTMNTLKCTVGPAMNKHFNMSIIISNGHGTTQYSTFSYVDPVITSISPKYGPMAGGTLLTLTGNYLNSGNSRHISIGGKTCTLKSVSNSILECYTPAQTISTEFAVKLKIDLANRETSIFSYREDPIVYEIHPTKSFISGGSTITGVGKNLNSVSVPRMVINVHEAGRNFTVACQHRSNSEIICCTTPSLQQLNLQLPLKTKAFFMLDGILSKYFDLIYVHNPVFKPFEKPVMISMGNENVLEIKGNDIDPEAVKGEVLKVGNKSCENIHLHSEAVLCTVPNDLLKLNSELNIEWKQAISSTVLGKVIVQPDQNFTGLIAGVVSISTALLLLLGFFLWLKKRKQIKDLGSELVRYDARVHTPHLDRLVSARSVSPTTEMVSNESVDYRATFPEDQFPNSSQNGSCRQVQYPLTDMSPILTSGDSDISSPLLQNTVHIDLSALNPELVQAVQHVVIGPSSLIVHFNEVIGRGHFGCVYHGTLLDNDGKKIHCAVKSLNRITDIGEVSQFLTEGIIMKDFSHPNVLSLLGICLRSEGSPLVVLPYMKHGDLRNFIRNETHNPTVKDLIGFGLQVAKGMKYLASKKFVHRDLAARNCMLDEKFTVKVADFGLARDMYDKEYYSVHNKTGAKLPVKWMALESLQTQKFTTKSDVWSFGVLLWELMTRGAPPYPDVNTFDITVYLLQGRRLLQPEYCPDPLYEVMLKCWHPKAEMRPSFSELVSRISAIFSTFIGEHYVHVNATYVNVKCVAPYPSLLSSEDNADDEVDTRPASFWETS

`Cc1ccn2nc(N)c(-c3ccccc3)c2n1` [Compound V-1] registered a Ki on JAK3 above 5 µM.
`COc1cccc(OC)c1-c1cnc2c(-c3ccccn3)c(N)nn2c1` [Compound V-3]: the results for the Ki at Itk, on c-Met and on JAK3 were 0.5 to 5 µM, 0.5 to 5 µM and above 5 µM, respectively.
On to `Cc1cccc(C)c1-c1cnc2c(-c3ccccn3)c(N)nn2c1` [Compound V-4], for which the Ki on Itk is 0.5 to 5 µM; at c-Met, 0.5 to 5 µM; at JAK3, above 5 µM.
In the case of `Nc1nn2cc(-c3ccccc3C(F)(F)F)cnc2c1-c1ccccn1` [Compound V-5], the Ki at Itk is 0.5 to 5 µM; at c-Met, 0.5 to 5 µM; at JAK3, above 5 µM.
For the compound `CC(=O)c1ccccc1-c1cnc2c(-c3ccccn3)c(N)nn2c1` [Compound V-6], the Ki at Itk, on c-Met and at JAK3 was 0.5 to 5 µM each time.
`Cc1ccccc1-c1cnc2c(-c3ccccn3)c(N)nn2c1` [Compound V-7]: the figures for the Ki at Itk, on c-Met and on JAK3 were 0.5 to 5 µM, 0.5 to 5 µM and above 5 µM, respectively.
Take `Nc1nn2cc(-c3ccccc3O)cnc2c1-c1ccccn1` [Compound V-8]: the results for the Ki at Itk, at c-Met and on JAK3 were 0.5 to 5 µM, 0.5 to 5 µM and above 5 µM, respectively.
For `CCc1ccccc1-c1cnc2c(-c3ccccn3)c(N)nn2c1` [Compound V-9], the results for the Ki at Itk, at c-Met and at JAK3 were 0.5 to 5 µM, 0.5 to 5 µM and above 5 µM, respectively.
Turning to `N#Cc1ccccc1-c1cnc2c(-c3ccccn3)c(N)nn2c1` [Compound V-10], the Ki at Itk was 0.5 to 5 µM; at c-Met it was 0.5 to 5 µM; on JAK3 it was above 5 µM.
On to `Nc1nn2cc(-c3ccccc3C(=O)O)cnc2c1-c1ccccn1` [Compound V-11], for which the results for the inhibitory constant (Ki) at Itk, on c-Met and at JAK3 were 0.5 to 5 µM, 0.5 to 5 µM and above 5 µM, respectively.
Turning to `Nc1nn2cc(-c3ccccc3C=O)cnc2c1-c1ccccn1` [Compound V-12], the Ki is 0.5 to 5 µM at Itk, 0.5 to 5 µM on c-Met and above 5 µM at JAK3.
As to `Nc1nn2cc(-c3ccccc3F)cnc2c1-c1ccccn1` [Compound V-13], the Ki at Itk was 0.5 to 5 µM; on c-Met it was 0.5 to 5 µM; at JAK3, above 5 µM.
For the compound `Nc1nn2cc(-c3ccccc3-c3ccccc3)cnc2c1-c1ccccn1` [Compound V-15], the inhibition constant (Ki) at Itk is 0.5 to 5 µM; at c-Met, 0.5 to 5 µM; at JAK3 it was above 5 µM.
For the compound `Nc1nn2cc(-c3cccc(C(=O)N4CCC(N5CCCC5)CC4)n3)cnc2c1-c1ccccn1` [Compound V-121], the Ki on Itk is 0.5 to 5 µM; at JAK3, above 5 µM.
The matching figures for `Nc1nn2cc(-c3ccc(N4CCCC4)nc3)cnc2c1-c1ccccn1` [Compound V-143]: 0.5 to 5 µM and above 5 µM.
Regarding `Nc1nn2cc(-c3ccc(C=O)cc3)cnc2c1-c1ccccn1` [Compound V-193], at Itk, the Ki was below 0.5 µM.
For the compound `N#Cc1ccc(-c2cnc3c(-c4ccccn4)c(N)nn3c2)cc1` [Compound V-196], on Itk, the Ki was below 0.5 µM.
Still for that read-out and setting: to `Nc1nn2cc(-c3ccc(CCl)cc3)cnc2c1-c1ccccn1` [Compound V-203] belongs below 0.5 µM.
Take `Nc1nn2cc(-c3cccc(CCl)c3)cnc2c1-c1ccccn1` [Compound V-210]: the Ki on Itk was below 0.5 µM.
The same measure, in the same setting: next, `COc1ccc(-c2cn3nc(N)c(-c4ccccn4)c3nc2C(F)(F)F)cc1` [Compound V-218]: 0.5 to 5 µM; `COc1ccc(-c2cnc3c(-c4ccc(C)cn4)c(N)nn3c2)cc1` [Compound V-220]: 0.5 to 5 µM.
Take `Cc1cnc2c(-c3cc(N[C@H](C)c4ccccc4)ncn3)c(N)nn2c1` [Compound V-300]: the results for the Ki on Itk and at c-Met were 0.5 to 5 µM and below 0.5 µM, respectively.
For `Cc1cnc2c(-c3cc(N[C@@H](C)c4ccccc4)ncn3)c(N)nn2c1` [Compound V-301] the same measures were 0.5 to 5 µM and 0.5 to 5 µM.
For `CCN(CC)C(=O)C1CCCN(c2cc(-c3c(N)nn4cc(C)cnc34)ncn2)C1` (centres unmarked) [Compound V-338] the same measures were 0.5 to 5 µM and below 0.5 µM.
